Measurements reported in PubChem BioAssay (NCI).
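GI50: concentration for 50% inhibition of growth. TGI: total growth inhibition.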

How the values were obtained:
Test in all cases: NCI-60 cell line screen, 384-well format
786-0 renal = tested on: 786-0 renal
A498 renal = tested on: A498 renal
A549 NSCLC = tested on: A549 NSCLC
ACHN renal = tested on: ACHN renal
BT-549 breast = tested on: BT-549 breast
CAKI-1 renal = tested on: CAKI-1 renal
CCRF-CEM leukemia = tested on: CCRF-CEM leukemia
COLO 205 colon = tested on: COLO 205 colon
DU-145 prostate = tested on: DU-145 prostate
EKVX NSCLC = tested on: EKVX NSCLC
HCC-2998 colon = tested on: HCC-2998 colon
HCT-116 colon = tested on: HCT-116 colon
HCT-15 colon = tested on: HCT-15 colon
HL-60(TB) leukemia = tested on: HL-60(TB) leukemia
HOP-62 NSCLC = tested on: HOP-62 NSCLC
HOP-92 NSCLC = tested on: HOP-92 NSCLC
HS 578T breast = tested on: HS 578T breast
HT29 colon = tested on: HT29 colon
IGROV1 ovarian = tested on: IGROV1 ovarian
K-562 leukemia = tested on: K-562 leukemia
KM12 colon = tested on: KM12 colon
LOX IMVI melanoma = tested on: LOX IMVI melanoma
M14 melanoma = tested on: M14 melanoma
MALME-3M melanoma = tested on: MALME-3M melanoma
MCF7 breast = tested on: MCF7 breast
MDA-MB-231 breast = tested on: MDA-MB-231 breast
MDA-MB-435 melanoma = tested on: MDA-MB-435 melanoma
MDA-MB-468 breast = tested on: MDA-MB-468 breast
MOLT-4 leukemia = tested on: MOLT-4 leukemia
NCI-H226 lung = tested on: NCI-H226 lung
NCI-H23 lung = tested on: NCI-H23 lung
NCI-H322M lung = tested on: NCI-H322M lung
NCI-H460 NSCLC = tested on: NCI-H460 NSCLC
NCI-H522 lung = tested on: NCI-H522 lung
NCI/ADR-RES ovarian = tested on: NCI/ADR-RES ovarian
OVCAR-3 ovarian = tested on: OVCAR-3 ovarian
OVCAR-4 ovarian = tested on: OVCAR-4 ovarian
OVCAR-5 ovarian = tested on: OVCAR-5 ovarian
OVCAR-8 ovarian = tested on: OVCAR-8 ovarian
PC-3 prostate = tested on: PC-3 prostate
RPMI-8226 leukemia = tested on: RPMI-8226 leukemia
RXF 393 renal = tested on: RXF 393 renal
SF-268 CNS = tested on: SF-268 CNS
SF-295 CNS = tested on: SF-295 CNS
SF-539 CNS = tested on: SF-539 CNS
SK-MEL-2 melanoma = tested on: SK-MEL-2 melanoma
SK-MEL-28 melanoma = tested on: SK-MEL-28 melanoma
SK-MEL-5 melanoma = tested on: SK-MEL-5 melanoma
SN12C renal = tested on: SN12C renal
SNB-19 CNS = tested on: SNB-19 CNS
SNB-75 CNS = tested on: SNB-75 CNS
SR leukemia = tested on: SR leukemia
SW-620 colon = tested on: SW-620 colon
T-47D breast = tested on: T-47D breast
TK-10 renal = tested on: TK-10 renal
U251 glioblastoma = tested on: U251 glioblastoma
UACC-257 melanoma = tested on: UACC-257 melanoma
UACC-62 melanoma = tested on: UACC-62 melanoma
UO-31 renal = tested on: UO-31 renal

Work on `CCS(=O)(=O)N1CCN(c2ccc(Nc3ncc(C(N)=O)c(NC4CC4)n3)cc2)CC1` yielded a GI50 ([…]-0 renal) of 1600 nM, a TGI (786-0 renal) of 3.41 µM and a GI50 (A498 renal) of 1680 nM. For the same compound, the TGI (A498 renal) was 5.19 µM, the GI50 (A549 NSCLC) was 1830 nM and the TGI (A549 NSCLC) was over 100 µM. It also gave a GI50 (ACHN renal) of 4.3 µM, a TGI (ACHN renal) of over 100 µM and a GI50 (BT-549 breast) of 1100 nM. For the same compound, the TGI (BT-549 breast) was 2510 nM, the GI50 (CAKI-1 renal) was 6.05 µM and the TGI (CAKI-1 renal) was over 100 µM. The GI50 (CCRF-CEM leukemia) was 366 nM, the TGI (CCRF-CEM leukemia) was 1270 nM and the GI50 (COLO 205 colon) was 485 nM. For the same compound, the TGI (COLO 205 colon) was 2180 nM, the GI50 (DU-145 prostate) was 2820 nM and the TGI (DU-145 prostate) was 18.8 µM. It also gave a GI50 (EKVX NSCLC) of 1920 nM, a TGI (EKVX NSCLC) of 10.2 µM and a GI50 (HCC-2998 colon) of 2500 nM. For the same compound, the TGI (HCC-2998 colon) was 5.15 µM, the GI50 (HCT-116 colon) was 3.72 µM and the TGI (HCT-116 colon) was 91.1 µM. For the same compound, the GI50 (HCT-15 colon) was 1580 nM, the TGI (HCT-15 colon) was 3.27 µM and the GI50 (HL-60(TB) leukemia) was 418 nM. The TGI (HL-60(TB) leukemia) was 2040 nM, the GI50 (HOP-62 NSCLC) was 1890 nM and the TGI (HOP-62 NSCLC) was 5.01 µM. The GI50 (HOP-92 NSCLC) was 3.72 µM, the TGI (HOP-92 NSCLC) was 14.9 µM and the GI50 (HS 578T breast) was 2010 nM. The TGI (HS 578T breast) was 4.45 µM, the GI50 (HT29 colon) was 4.09 µM and the TGI (HT29 colon) was 56.4 µM. The GI50 (IGROV1 ovarian) was 2820 nM, the TGI (IGROV1 ovarian) was 16.3 µM and the GI50 (K-562 leukemia) was 2060 nM. It also gave a TGI (K-562 leukemia) of 8.1 µM, a GI50 (KM12 colon) of 440 nM and a TGI (KM12 colon) of 12 µM. It also gave a GI50 (LOX IMVI melanoma) of 2010 nM, a TGI (LOX IMVI melanoma) of 13.3 µM and a GI50 (M14 melanoma) of 301 nM. It also gave a TGI (M14 melanoma) of 3.42 µM, a GI50 (MALME-3M melanoma) of 539 nM and a TGI (MALME-3M melanoma) of 4.14 µM. It also gave a GI50 (MCF7 breast) of 1410 nM, a TGI (MCF7 breast) of 22.3 µM and a GI50 (MDA-MB-231 breast) of 2930 nM. It also gave a TGI (MDA-MB-231 breast) of 33.6 µM, a GI50 (MDA-MB-435 melanoma) of 1630 nM and a TGI (MDA-MB-435 melanoma) of 8.98 µM. For the same compound, the GI50 (MDA-MB-468 breast) was 2050 nM, the TGI (MDA-MB-468 breast) was 3.75 µM and the GI50 (MOLT-4 leukemia) was 381 nM. For the same compound, the TGI (MOLT-4 leukemia) was 1540 nM, the GI50 (NCI-H226 lung) was 633 nM and the TGI (NCI-H226 lung) was 10.6 µM. For the same compound, the GI50 (NCI-H23 lung) was 1290 nM, the TGI (NCI-H23 lung) was 4.25 µM and the GI50 (NCI-H322M lung) was 1590 nM. It also gave a TGI (NCI-H322M lung) of 3.93 µM, a GI50 (NCI-H460 NSCLC) of 3.17 µM and a TGI (NCI-H460 NSCLC) of 51.7 µM. The GI50 (NCI-H522 lung) was 674 nM, the TGI (NCI-H522 lung) was 4.97 µM and the GI50 (NCI/ADR-RES ovarian) was 7.08 µM. It also gave a TGI (NCI/ADR-RES ovarian) of 28.6 µM, a GI50 (OVCAR-3 ovarian) of 2610 nM and a TGI (OVCAR-3 ovarian) of 7.63 µM. It also gave a GI50 (OVCAR-4 ovarian) of 2060 nM, a TGI (OVCAR-4 ovarian) of 5.72 µM and a GI50 (OVCAR-5 ovarian) of 4.25 µM. For the same compound, the TGI (OVCAR-5 ovarian) was 18.7 µM, the GI50 (OVCAR-8 ovarian) was 371 nM and the TGI (OVCAR-8 ovarian) was 1400 nM. It also gave a GI50 (PC-3 prostate) of 10.4 µM, a TGI (PC-3 prostate) of over 100 µM and a GI50 (RPMI-8226 leukemia) of 155 nM. It also gave a TGI (RPMI-8226 leukemia) of 401 nM, a GI50 (RXF 393 renal) of 1510 nM and a TGI (RXF 393 renal) of 3.73 µM. The GI50 (SF-268 CNS) was 1900 nM, the TGI (SF-268 CNS) was 21.5 µM and the GI50 (SF-295 CNS) was 1260 nM. For the same compound, the TGI (SF-295 CNS) was 3.43 µM, the GI50 (SF-539 CNS) was 1180 nM and the TGI (SF-539 CNS) was 2730 nM. The GI50 (SK-MEL-2 melanoma) was 1870 nM, the TGI (SK-MEL-2 melanoma) was 3.89 µM and the GI50 (SK-MEL-28 melanoma) was 2930 nM. It also gave a TGI (SK-MEL-28 melanoma) of 50.7 µM, a GI50 (SK-MEL-5 melanoma) of 1390 nM and a TGI (SK-MEL-5 melanoma) of 4.65 µM. The GI50 (SN12C renal) was 1760 nM, the TGI (SN12C renal) was 10.2 µM and the GI50 (SNB-19 CNS) was 8.88 µM. For the same compound, the TGI (SNB-19 CNS) was over 100 µM, the GI50 (SNB-75 CNS) was 4.03 µM and the TGI (SNB-75 CNS) was 8.56 µM. For the same compound, the GI50 (SR leukemia) was 368 nM, the TGI (SR leukemia) was 1290 nM and the GI50 (SW-620 colon) was 44.9 µM. For the same compound, the TGI (SW-620 colon) was over 100 µM, the GI50 (T-47D breast) was 2230 nM and the TGI (T-47D breast) was 4.43 µM. It also gave a GI50 (TK-10 renal) of 2200 nM, a TGI (TK-10 renal) of 5.5 µM and a GI50 (U251 glioblastoma) of 6.79 µM. It also gave a TGI (U251 glioblastoma) of over 100 µM, a GI50 (UACC-257 melanoma) of 10.2 µM and a TGI (UACC-257 melanoma) of 63 µM. For the same compound, the GI50 (UACC-62 melanoma) was 9.42 µM, the TGI (UACC-62 melanoma) was 23.9 µM and the GI50 (UO-31 renal) was 2920 nM. The TGI (UO-31 renal) was over 100 µM.
